Read-outs that look alike come from different tables or passages of the source.
How the values were obtained:
[1] = tested on: AA-induced platelet aggregation; test: Platelet aggregation inhibition test (aggregometer), AA-induced; format: cell-based, rat; conditions: for IC50: AA 30˜60×10^−6M with near-threshold collagen, rat adjusted PRP; for fold stronger activity than ASA on AA-induced aggregation: relative to ASA
Procedure: (§1) 7 weeks-year old Sprgue-Dawley male white rat (240±20 g, Orient Bio Co. Ltd) was anesthetized with diethyl ether. The blood of rat was collected from heart using a syringe containing 2.2% sodium citrate (10% v/v) and centrifuged for 10 mins with the speed of 200×g and the supernatant (upper layer) of buffy coat was collected using by serum separator (Mediland Co. Ltd, 10×250 mm) to afford platelet rich plasma containing supematant(PRP). The residue was centrifuged at 1500×g for 15 min to obtain the platelet poor plasma (PPP) and the PRP was diluted with PPP to adjust the final platelet number in PRP to 4.0-4.5×10^8/ml. Platelet number was counted using a platelet counter (Excell 18 MWI, DANAM Electronics, USA) disclosed in the literature (Lee Y. Y. et al., Anti-platelet Aggregating and anti-oxidative activities of 11-O-(4′-O-Methylgalloy)-bergenin, A new compound isolated from Crassul cv. “Himaturi”, Planta Med., 71, pp 776-777).
(§2) An aliquote (500 μl) of platelet count adjusted PRP was preincubated for 3 minutes at 37° C. in an aggregometer (490-X optical aggregometer, Chrono-Log Corp, USA) with constant stirring at 1,000 rpm. 5 μl of ginsenoside solution was added followed by successive addition of aggregation inducing agent (5 μl) at an intervals of 30 s to incubate for 30 sec with stirring at the speed of 1100 rpm. Arachidonic acid (AA, Sigma, A8798), Thromboxane A2 (U46619, Sigma, D8174) and collagen (Chrono-Log, No. 385) were used as aggregation inducing agents at the concentration of 30˜60×10^−6M (AA), 2˜4×10^−6M (U46619) and 2˜4×10^−6 g/ml (collagen) respectively. Aspirin was used as a positive control. […] The aggregation induced by AA and U46619 was determined in presence of a near-threshold concentration (1.0-1.4 μg/ml and 0.8-1.2 μg/ml, respectively) of collagen that can only induce change in platelet shape but no aggregation.
(§3) Inhibition (%) was calculated as follows: Inhibition (%)=(1−maximal aggregation of sample-treated aPRP/maximal aggregation of vehicle-treated aPRP)×100 All experiments were performed in tripticates. IC50 values were calculated from the linear regression of the plot of mean values (n=3) of percent inhibition versus concentration of corresponding ginsenoside. Sigma Plot software was used for graphing. Regression equations were calculated using Regression Wizard from the Sigma Plot equation library.

[2] = tested on: U46619 (thromboxane A2 mimetic drug)-induced platelet aggregation; test: Platelet aggregation inhibition test (aggregometer), U46619-induced; format: cell-based, rat; conditions: for IC50: U46619 2˜4×10^−6M with near-threshold collagen, rat adjusted PRP
Procedure: as §1, §2, §3

human plasma coagulation [3] = test: Anti-coagulation test, PT (prothrombin time); format: biochemical
Procedure: (§4) The inhibitory effect of the ginsenosides prepared in Examples on human plasma coagulation was determined by aPTT (activated partial thromboplastin time), PT(prothrombin time) and TT(thrombin time) tests.
(§5) Fresh freeze plasma was procured from the blood bank of Seoul National University Hospital (www.snuh.org) to use in the Anti-coagulation Test in human plasma.
(§6) To determine PT and TT, 0.1 ml plasma treated with test samples in the case of PT and 0.2 ml plasma treated with test samples in the case of TT was incubated at 37° C. for 2 mins respectively. 2 ml of PT reagent (Diagnostica Stago, Cat. 0605) and TT reagent (Diagnostica Stago, Cat. 0611) were added thereto to incubate for 3 mins. The coagulation time from the starting time of plasma coagulation with 0.1 ml of 20 mM calcium chloride solution to the ending time of plasma agglutination was determined using by fibrometer (BBL Fibrosystems, Fischer Scientific, USA).

human plasma coagulation [4] = test: Anti-coagulation test, aPTT (activated partial thromboplastin time); format: biochemical
Procedure: as §4, §5
To determine aPTT, 0.1 ml plasma treated with test samples was incubated at 37° C. for 2 mins and aPTT reagent (Diagnostica Stago, Cat. 0595) was added thereto to incubate for 3 mins. The coagulation time from the starting time of plasma coagulation with 0.1 ml of 20 mM calcium chloride solution to the ending time of plasma agglutination was determined using by fibrometer (BBL Fibrosystems, Fischer Scientific, USA).

[5] = tested on: collagen-induced platelet aggregation; test: Platelet aggregation inhibition test (aggregometer), collagen-induced; format: cell-based, rat; conditions: for IC50: collagen 2˜4×10^−6 g/ml, rat adjusted PRP
Procedure: as §1, §2, §3

human plasma coagulation [6] = test: Anti-coagulation test, TT (thrombin time); format: biochemical
Procedure: as §4, §5, §6

[7] = tested on: rat platelet aggregation induced by arachidonic acid; test: Modified smear method, arachidonic acid-induced platelet aggregation in PRP; format: cell-based; set-up: key: ++: full aggregation of platelet; +: intermediate aggregation of platelet; ±: slight aggregation of platelet; −: no aggregation of platelet; conditions: AA 4 × 10^−4 M
Procedure: (§7) The inhibitory effect of the ginsenosides prepared in Examples on the rat platelet aggregation was determined according to the procedure disclosed in the literature (Yun-Choi et al., Modified smear method for screening potential inhibitors of platelet aggregation from plant sources, J. Nat. Prod., 48(3), pp 363-370, 1985).
(§8) The blood of 7 weeks-year old Sprgue-Dawley rat (male, 240±20 g, Orient Bio Co. Ltd) was collected using a syringe containing 2.2% sodium citrate (10% v/v) and centrifuged for 10 mins with the speed of 200× g to collect platelet rich plasma containing supernatant(PRP). 0.16 ml of PRP was treated with 0.2 ml of SG, SGbu-1, and SGBu-2 as test samples and 0.2 ml of solutions of arachidonic acid (Sigma, A8798), ADP (Sigma, A4386) and collagen (Chrono-Log, No. 385) as platelet aggregation inducers (control group) to incubate for 4 mins at 37° C.
(§9) Thin Smear prepared from step 1-1 was stained and the intensity of platelet aggregation result was observed by microscopy method. The intensity of platelet aggregation result was divided into […] categories, i.e., “++”: full aggregation of platelet; “+”: intermediate aggregation of platelet; “±”: slight aggregation of platelet; “−”: no aggregation of platelet.

[8] = tested on: rat platelet aggregation induced by collagen; test: Modified smear method, collagen-induced platelet aggregation in PRP; format: cell-based; set-up: key: ++: full aggregation of platelet; +: intermediate aggregation of platelet; ±: slight aggregation of platelet; −: no aggregation of platelet; conditions: collagen 2 × 10^−5 g/ml
Procedure: as §7, §8, §9

[9] = tested on: rat platelet aggregation induced by ADP; test: Modified smear method, ADP-induced platelet aggregation in PRP; format: cell-based; set-up: key: ++: full aggregation of platelet; +: intermediate aggregation of platelet; ±: slight aggregation of platelet; −: no aggregation of platelet; conditions: ADP 3.2 × 10^−6 M
Procedure: as §7, §8, §9

| SMILES | inhibitory effect on AA-induced platelet aggregation (in words) [1] | inhibitory effect on U46619-induced platelet aggregation (in words) [2] | IC50 [2] | PT (human plasma coagulation [3]) | IC50 [1] | aPTT (human plasma coagulation [4]) | inhibitory effect on collagen-induced platelet aggregation (in words) [5] | IC50 [5] | TT (human plasma coagulation [6]) | fold stronger activity than ASA on AA-induced aggregation [1] | further results |
| --- | --- | --- | --- | --- | --- | --- | --- | --- | --- | --- | --- |
| CC(C)=CCC[C@](C)(O)[C@H]1CC[C@]2(C)[C@@H]1[C@H](O)C[C@@H]1[C@@]3(C)CC[C@H](O[C@@H]4O[C@H](CO)[C@@H](O)[C@H](O)[C@H]4O[C@@H]4O[C@H](CO)[C@@H](O)[C@H](O)[C@H]4O)C(C)(C)[C@@H]3CC[C@]12C (racemic) [Racemic ginsenoside Rg3, ginsenoside Rg3] | exhibited inhibitory effect |  |  |  |  |  |  |  |  |  |  |
| CC(C)=CCC[C@](C)(O)[C@H]1CC[C@]2(C)[C@@H]1[C@H](O)C[C@@H]1[C@@]3(C)CC[C@H](O[C@@H]4O[C@H](CO)[C@@H](O)[C@H](O)[C@H]4O[C@@H]4O[C@H](CO)[C@@H](O)[C@H](O)[C@H]4O)C(C)(C)[C@@H]3CC[C@]12C [20(R)-ginsenosides Rg3, 20(R)-ginsenoside Rg3] |  | inhibited | 357 µM | 24.1 s | > 100 µM | 50.3 s | inhibited | 492 µM | 13.6 s |  | inhibitory effect on AA-induced platelet aggregation (in words) ([1]; listed as 20(R)-Rg3): only poor platelet antiaggregating activity; inhibitory effect on collagen-induced platelet aggregation (in words) ([5]; listed as 20(R)-Rg3): comparable to that of ASA |
| CC(C)=CCC[C@](C)(O)[C@H]1CC[C@]2(C)[C@@H]1[C@H](O)C[C@@H]1[C@@]3(C)CC[C@H](O[C@@H]4O[C@H](CO)[C@@H](O)[C@H](O)[C@H]4O[C@@H]4O[C@H](CO)[C@@H](O)[C@H](O)[C@H]4O)C(C)(C)[C@@H]3CC[C@]12C [20(S)-ginsenosides Rg3, 20(S)-ginsenoside Rg3] | relatively strong inhibitory effect |  | > 700 µM | 23.5 s | 53 µM | 57.2 s |  | > 700 µM | 12.9 s |  |  |
| CC(=O)Oc1ccccc1C(=O)O [Aspirin(ASP), Aspirin] |  |  |  |  |  |  |  |  |  |  | IC50 ([2]; Platelet): 508 µM; intensity of platelet aggregation, inducer AA ([7]; 0.7 × 10^−3 M Aspirin): −; intensity of platelet aggregation, inducer AA (value in brackets) ([7]; Aspirin (1.4 × 10^−3 M)): ±; IC50 ([1]; Platelet): 66 µM; intensity of platelet aggregation, inducer collagen ([8]; 1.4 × 10^−3 M Aspirin): −; intensity of platelet aggregation, inducer collagen (value in brackets) ([8]; Aspirin (2.8 × 10^−3 M)): ±; intensity of platelet aggregation, inducer ADP ([9]; 2.8 × 10^−3 M Aspirin): −; intensity of platelet aggregation, inducer ADP (value in brackets) ([9]; Aspirin (5.5 × 10^−3 M)): ±; IC50 ([5]; Platelet): 588 µM |
| CC(C)=CC/C=C(\C)[C@H]1CC[C@]2(C)[C@@H]1[C@H](O)C[C@@H]1[C@@]3(C)CC[C@H](O[C@@H]4O[C@H](CO)[C@@H](O)[C@H](O)[C@H]4O[C@@H]4O[C@H](CO)[C@@H](O)[C@H](O)[C@H]4O)C(C)(C)[C@@H]3CC[C@]12C [ginsenoside Rg5] |  |  | 102 µM | 28.1 s | 8 µM | 66.0 s | comparable to that of ASA | 409 µM | 14.1 s | 8 fold |  |
| C=C(CCC=C(C)C)[C@H]1CC[C@]2(C)[C@@H]1[C@H](O)C[C@@H]1[C@@]3(C)CC[C@H](O[C@@H]4O[C@H](CO)[C@@H](O)[C@H](O)[C@H]4O[C@@H]4O[C@H](CO)[C@@H](O)[C@H](O)[C@H]4O)C(C)(C)[C@@H]3CC[C@]12C [ginsenoside Rk1] | strongest inhibitory effect among four tested compounds | strongest inhibitory effect among four tested compounds | 78 µM | 29.8 s | 3 µM | 54.5 s | strongest inhibitory effect among four tested compounds | 197 µM | 14.3 s | 22 fold | fold higher activity than ASA on collagen-induced aggregation ([5]; relative to ASA): 3 fold |
